Measured values published in PubChem BioAssay (NCI).
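Values below derive from 48-hour exposures of cells grown in 96-well plates, with endpoints linearly interpolated between the two concentrations bracketing the appropriate inhibition level. GI50 is the concentration that inhibits growth by half. TGI is the concentration that stops growth completely.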

Assays:
Assay in all cases: NCI tumour cell line growth inhibition, 48 h
[1] = test system: SK-OV-3 ovarian
[2] = test system: UACC-257 melanoma
[3] = test system: K-562 leukemia
[4] = test system: HT29 colon
[5] = test system: NCI-H23 lung
[6] = test system: UACC-62 melanoma
[7] = test system: A498 renal
[8] = test system: MDA-MB-231 breast
[9] = test system: T-47D breast
[10] = test system: HCT-15 colon
[11] = test system: DU-145 prostate
[12] = test system: NCI-H226 lung
[13] = test system: RPMI-8226 leukemia
[14] = test system: HL-60(TB) leukemia
[15] = test system: SR leukemia
[16] = test system: HOP-92 NSCLC
[17] = test system: PC-3 prostate
[18] = test system: UO-31 renal
[19] = test system: NCI-H522 lung
[20] = test system: CAKI-1 renal
[21] = test system: SF-295 CNS
[22] = test system: OVCAR-5 ovarian
[23] = test system: MCF7 breast
[24] = test system: HCC-2998 colon
[25] = test system: OVCAR-8 ovarian
[26] = test system: SW-620 colon
[27] = test system: KM12 colon
[28] = test system: SNB-19 CNS
[29] = test system: SF-268 CNS
[30] = test system: SK-MEL-5 melanoma
[31] = test system: OVCAR-4 ovarian
[32] = test system: OVCAR-3 ovarian
[33] = test system: NCI-H460 lung
[34] = test system: U251 CNS
[35] = test system: MDA-MB-435
[36] = test system: LOX IMVI melanoma
[37] = test system: TK-10 renal
[38] = test system: SK-MEL-2 melanoma
[39] = test system: A549 NSCLC
[40] = test system: M14 melanoma
[41] = test system: SF-539 CNS
[42] = test system: 786-0 renal
[43] = test system: SNB-75 CNS
[44] = test system: SN12C renal
[45] = test system: MALME-3M melanoma
[46] = test system: BT-549 breast
[47] = test system: EKVX NSCLC
[48] = test system: MOLT-4 leukemia
[49] = test system: ACHN renal
[50] = test system: IGROV1 ovarian
[51] = test system: SK-MEL-28 melanoma
[52] = test system: NCI/ADR-RES ovarian
[53] = test system: HS 578T breast
[54] = test system: HCT-116 colon
[55] = test system: COLO 205 colon
[56] = test system: CCRF-CEM leukemia
[57] = test system: HOP-62 NSCLC

## COc1cc(C(=O)c2cc(C)c3[nH]c4ccc(Cl)cc4c3c2C)cc(OC)c1OC
[1]
  GI50: 0.666 µM
  TGI: 34.7 µM
[2]
  GI50: 4.28 µM
  TGI: 32.3 µM
[3]
  GI50: 0.035 µM
  TGI: > 100 µM
[4]
  GI50: 0.359 µM
  TGI: 10.7 µM
[5]
  GI50: 0.0444 µM
  TGI: 7.43 µM
[6]
  GI50: 0.0376 µM
  TGI: 8.4 µM
[7]
  GI50: 0.0242 µM
  TGI: 0.0805 µM
[8]
  GI50: 0.0496 µM
  TGI: 2.32 µM
[9]
  GI50: 1.84 µM
  TGI: 39.3 µM
[10]
  GI50: 0.0355 µM
  TGI: 4.25 µM
[11]
  GI50: 0.0459 µM
  TGI: 3.6 µM
[12]
  GI50: 0.679 µM
  TGI: 18.3 µM
[13]
  GI50: 0.0421 µM
  TGI: 18.6 µM
[14]
  GI50: 0.0279 µM
  TGI: 0.0901 µM
[15]
  GI50: 0.0493 µM
  TGI: 97.1 µM
[16]
  GI50: 0.156 µM
  TGI: 4.65 µM
[17]
  GI50: 0.146 µM
  TGI: 13.7 µM
[18]
  GI50: 0.12 µM
  TGI: 11.5 µM
[19]
  GI50: 0.0291 µM
  TGI: 1.95 µM
[20]
  GI50: 0.0521 µM
  TGI: 12.5 µM
[21]
  GI50: 0.0284 µM
  TGI: 0.303 µM
[22]
  GI50: 0.0635 µM
  TGI: 18 µM
[23]
  GI50: 0.0352 µM
  TGI: 13.2 µM
[24]
  GI50: 0.0548 µM
  TGI: 5.29 µM
[25]
  GI50: 0.0439 µM
  TGI: 10.7 µM
[26]
  GI50: 0.0415 µM
  TGI: 24.8 µM
[27]
  GI50: 0.0531 µM
  TGI: 2.4 µM
[28]
  GI50: 0.0418 µM
  TGI: 19.2 µM
[29]
  GI50: 0.182 µM
  TGI: 16.2 µM
[30]
  GI50: 0.0361 µM
  TGI: 0.196 µM
[31]
  GI50: 1.16 µM
  TGI: 27.2 µM
[32]
  GI50: 0.0329 µM
  TGI: 7.16 µM
[33]
  GI50: 0.035 µM
  TGI: 3.74 µM
[34]
  GI50: 0.0425 µM
  TGI: 15 µM
[35]
  GI50: 0.0249 µM
  TGI: 0.0733 µM
[36]
  GI50: 0.0384 µM
  TGI: 5.52 µM
[37]
  GI50: 2.71 µM
  TGI: 29.4 µM
[38]
  GI50: 0.575 µM
  TGI: 17.3 µM
[39]
  GI50: 0.134 µM
  TGI: 28.7 µM
[40]
  GI50: 0.033 µM
  TGI: 12.4 µM
[41]
  GI50: 0.0284 µM
  TGI: 0.461 µM
[42]
  GI50: 0.0634 µM
  TGI: 6.19 µM
[43]
  GI50: 0.0254 µM
  TGI: 3.96 µM
[44]
  GI50: 0.0509 µM
  TGI: 13.2 µM
[45]
  GI50: 0.0791 µM
  TGI: 15.3 µM
[46]
  GI50: 0.0423 µM
  TGI: 4.55 µM
[47]
  GI50: 0.254 µM
  TGI: 23.4 µM
[48]
  GI50: 0.046 µM
  TGI: > 47.4 µM
[49]
  GI50: 0.0593 µM
  TGI: 12.8 µM
[50]
  GI50: 0.0438 µM
  TGI: 12.3 µM
[51]
  GI50: 1.44 µM
  TGI: 17 µM
[52]
  GI50: 0.032 µM
  TGI: 11.9 µM
[53]
  GI50: 0.0364 µM
  TGI: 10.6 µM
[54]
  GI50: 0.0376 µM
  TGI: 3.19 µM
[55]
  GI50: 0.517 µM
  TGI: 2.36 µM
[56]
  GI50: 0.0399 µM
  TGI: > 100 µM
[57]
  GI50: 0.0756 µM
  TGI: 19.5 µM

## COc1ccc(C2CC(c3cccc(Nc4ccncc4)c3)=NN2c2cc(Cl)cc(Cl)c2)cc1 (stereo not given)
[1]
  GI50: 11.3 µM
  TGI: 31.4 µM
[2]
  GI50: 2.16 µM
  TGI: 4.92 µM
[3]
  GI50: 2.41 µM
  TGI: 5.57 µM
[4]
  GI50: 2.26 µM
  TGI: 5.46 µM
[5]
  GI50: 1.79 µM
  TGI: 3.44 µM
[6]
  GI50: 1.9 µM
  TGI: 3.94 µM
[7]
  GI50: 3.06 µM
  TGI: 18 µM
[9]
  GI50: 1.96 µM
  TGI: 4.43 µM
[10]
  GI50: 1.7 µM
  TGI: 3.26 µM
[11]
  GI50: 1.89 µM
  TGI: 3.58 µM
[12]
  GI50: 10.7 µM
  TGI: 30.7 µM
[14]
  GI50: 2.17 µM
  TGI: 5.12 µM
[15]
  GI50: 1.53 µM
  TGI: 4.34 µM
[16]
  GI50: 1.25 µM
  TGI: 2.67 µM
[17]
  GI50: 1.54 µM
  TGI: 3.16 µM
[18]
  GI50: 1.36 µM
  TGI: 2.74 µM
[20]
  GI50: 1.62 µM
  TGI: 3.1 µM
[21]
  GI50: 1.73 µM
  TGI: 3.14 µM
[22]
  GI50: 2.23 µM
  TGI: 5.19 µM
[23]
  GI50: 1.67 µM
  TGI: 3.3 µM
[24]
  GI50: 1.47 µM
  TGI: 2.85 µM
[26]
  GI50: 1.71 µM
  TGI: 3.26 µM
[27]
  GI50: 1.77 µM
  TGI: 3.3 µM
[29]
  GI50: 2.2 µM
  TGI: 5.62 µM
[30]
  GI50: 1.81 µM
  TGI: 3.28 µM
[31]
  GI50: 1.67 µM
  TGI: 3.12 µM
[32]
  GI50: 1.81 µM
  TGI: 3.35 µM
[33]
  GI50: 1.86 µM
  TGI: 3.45 µM
[35]
  GI50: 1.75 µM
  TGI: 3.32 µM
[36]
  GI50: 1.62 µM
  TGI: 2.97 µM
[38]
  GI50: 2.36 µM
  TGI: 5.02 µM
[41]
  GI50: 1.68 µM
  TGI: 3.14 µM
[43]
  GI50: 2.09 µM
  TGI: 11.7 µM
[44]
  GI50: 1.62 µM
  TGI: 3.16 µM
[46]
  GI50: 5.57 µM
  TGI: 24.8 µM
[47]
  GI50: 1.89 µM
  TGI: 4.68 µM
[48]
  GI50: 2.04 µM
  TGI: 4.97 µM
[49]
  GI50: 1.7 µM
  TGI: 3.08 µM
[50]
  GI50: 1.69 µM
  TGI: 3.35 µM
[51]
  GI50: 1.74 µM
  TGI: 3.36 µM
[52]
  GI50: 1.72 µM
  TGI: 3.27 µM
[56]
  GI50: 2.81 µM
  TGI: > 100 µM
[57]
  GI50: 2.08 µM
  TGI: 4.66 µM
